Columns and labels:
Liver [1] = experiment: Stability in dog liver microsomes; type: ADME, Canis lupus familiaris, microsome
Aminopeptidase N = Aminopeptidase N (Homo sapiens, UniProt P15144); experiment: Inhibition of APN (unknown origin)
[2] = Plasma protein binding in human; type: ADME, cell-free; settings: read-out: PPB (converted)
Dipeptidyl peptidase 2 = Dipeptidyl peptidase 2 (Homo sapiens, UniProt Q9UHL4); experiment: Inhibition of DPP2 (unknown origin)
[3] = Cmax in Wistar rat plasma at 30 mg/kg, po; type: ADME, organism-based; design: dose 30 mg/kg, route oral
Cytochrome P450 1A2 = target: T1, Cytochrome P450 1A2 (Homo sapiens, UniProt P05177); experiment: Inhibition of CYP1A2 (unknown origin) up to 10 uM; type: ADME
T1 sequence (P05177 whole entry): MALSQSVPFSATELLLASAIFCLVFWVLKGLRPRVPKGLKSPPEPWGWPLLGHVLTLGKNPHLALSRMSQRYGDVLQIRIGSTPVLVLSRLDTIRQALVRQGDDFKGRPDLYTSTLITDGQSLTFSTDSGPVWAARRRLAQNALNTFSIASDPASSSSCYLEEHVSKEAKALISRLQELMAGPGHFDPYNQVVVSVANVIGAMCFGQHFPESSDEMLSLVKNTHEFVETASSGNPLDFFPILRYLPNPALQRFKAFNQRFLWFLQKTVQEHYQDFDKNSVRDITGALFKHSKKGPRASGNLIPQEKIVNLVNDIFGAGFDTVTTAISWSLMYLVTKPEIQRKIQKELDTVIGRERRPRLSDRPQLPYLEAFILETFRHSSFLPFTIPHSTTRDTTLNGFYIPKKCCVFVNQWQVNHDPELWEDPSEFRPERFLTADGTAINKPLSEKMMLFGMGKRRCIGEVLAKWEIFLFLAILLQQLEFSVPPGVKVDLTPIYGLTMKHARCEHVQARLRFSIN

Dipeptidyl peptidase 9 = Dipeptidyl peptidase 9 (Homo sapiens, UniProt Q86TI2); experiment: Inhibition of DPP9 (unknown origin)
Sequence of Dipeptidyl peptidase 9 (Q86TI2 whole entry): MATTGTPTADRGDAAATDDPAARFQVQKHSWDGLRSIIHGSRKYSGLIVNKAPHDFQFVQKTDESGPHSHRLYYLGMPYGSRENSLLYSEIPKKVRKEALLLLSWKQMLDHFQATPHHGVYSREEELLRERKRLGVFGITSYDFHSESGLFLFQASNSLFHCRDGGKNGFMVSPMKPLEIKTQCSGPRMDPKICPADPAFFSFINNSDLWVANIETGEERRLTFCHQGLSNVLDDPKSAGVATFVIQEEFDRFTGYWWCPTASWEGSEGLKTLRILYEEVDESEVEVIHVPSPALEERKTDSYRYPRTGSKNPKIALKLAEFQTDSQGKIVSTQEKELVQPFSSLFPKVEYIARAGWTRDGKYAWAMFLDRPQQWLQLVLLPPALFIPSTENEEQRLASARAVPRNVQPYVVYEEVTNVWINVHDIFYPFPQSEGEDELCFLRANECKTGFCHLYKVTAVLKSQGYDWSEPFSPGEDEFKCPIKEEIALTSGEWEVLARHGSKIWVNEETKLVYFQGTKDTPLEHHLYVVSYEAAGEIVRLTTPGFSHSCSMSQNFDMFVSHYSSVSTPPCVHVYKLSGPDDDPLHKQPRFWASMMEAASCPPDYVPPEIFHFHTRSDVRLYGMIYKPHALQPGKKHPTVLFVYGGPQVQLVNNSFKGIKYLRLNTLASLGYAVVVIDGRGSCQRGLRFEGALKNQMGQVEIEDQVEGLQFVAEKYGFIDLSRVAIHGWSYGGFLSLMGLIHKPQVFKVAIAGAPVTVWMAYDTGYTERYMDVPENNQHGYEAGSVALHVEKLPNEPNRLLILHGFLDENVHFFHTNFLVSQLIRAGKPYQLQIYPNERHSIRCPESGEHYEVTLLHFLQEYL

Liver [4] = experiment: Stability in rat liver microsomes; type: ADME, microsome
Prolyl endopeptidase = target: T2, Prolyl endopeptidase (Homo sapiens, UniProt P48147); experiment: Inhibition of PPCE (unknown origin)
T2 sequence (P48147 whole entry): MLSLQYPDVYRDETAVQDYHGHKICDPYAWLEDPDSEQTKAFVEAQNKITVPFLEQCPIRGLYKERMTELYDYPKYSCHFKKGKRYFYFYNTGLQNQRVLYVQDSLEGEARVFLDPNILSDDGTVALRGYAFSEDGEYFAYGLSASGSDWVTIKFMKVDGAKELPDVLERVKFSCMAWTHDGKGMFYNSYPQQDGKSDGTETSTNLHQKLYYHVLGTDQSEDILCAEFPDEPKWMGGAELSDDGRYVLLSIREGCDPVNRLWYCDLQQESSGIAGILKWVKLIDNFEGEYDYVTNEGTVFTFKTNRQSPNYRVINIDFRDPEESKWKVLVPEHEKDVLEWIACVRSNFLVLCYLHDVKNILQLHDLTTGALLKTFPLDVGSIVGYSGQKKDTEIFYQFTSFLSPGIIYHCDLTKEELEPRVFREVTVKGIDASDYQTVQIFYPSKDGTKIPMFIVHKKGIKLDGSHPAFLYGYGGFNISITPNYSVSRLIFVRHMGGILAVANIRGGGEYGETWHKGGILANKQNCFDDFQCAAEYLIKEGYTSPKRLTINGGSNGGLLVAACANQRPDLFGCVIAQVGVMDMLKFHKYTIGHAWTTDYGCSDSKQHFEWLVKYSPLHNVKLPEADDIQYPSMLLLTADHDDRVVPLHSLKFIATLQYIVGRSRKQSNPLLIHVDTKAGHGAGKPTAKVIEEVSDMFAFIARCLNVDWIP

Cytochrome P450 2C9 = Cytochrome P450 2C9 (Homo sapiens, UniProt P11712); experiment: Inhibition of CYP2C9 (unknown origin) up to 10 uM; type: ADME
Sequence of Cytochrome P450 2C9 (P11712 whole entry): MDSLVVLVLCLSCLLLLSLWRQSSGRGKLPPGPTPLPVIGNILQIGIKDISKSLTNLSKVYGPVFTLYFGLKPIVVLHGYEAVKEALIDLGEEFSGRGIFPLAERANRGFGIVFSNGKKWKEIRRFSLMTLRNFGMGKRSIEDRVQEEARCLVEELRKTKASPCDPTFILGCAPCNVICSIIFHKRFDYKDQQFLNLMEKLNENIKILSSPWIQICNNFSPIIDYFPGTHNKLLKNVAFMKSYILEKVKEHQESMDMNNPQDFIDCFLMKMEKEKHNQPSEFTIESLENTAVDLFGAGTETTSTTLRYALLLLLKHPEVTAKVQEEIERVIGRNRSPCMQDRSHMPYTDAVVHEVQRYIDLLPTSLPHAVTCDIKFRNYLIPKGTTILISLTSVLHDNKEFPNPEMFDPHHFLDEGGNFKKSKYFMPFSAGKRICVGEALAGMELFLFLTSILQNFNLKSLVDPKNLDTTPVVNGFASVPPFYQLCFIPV

[5] = target: Angiotensin-converting enzyme (Homo sapiens, UniProt P12821); experiment: Inhibition of human plasma ACE
Sequence of Angiotensin-converting enzyme (P12821 whole entry): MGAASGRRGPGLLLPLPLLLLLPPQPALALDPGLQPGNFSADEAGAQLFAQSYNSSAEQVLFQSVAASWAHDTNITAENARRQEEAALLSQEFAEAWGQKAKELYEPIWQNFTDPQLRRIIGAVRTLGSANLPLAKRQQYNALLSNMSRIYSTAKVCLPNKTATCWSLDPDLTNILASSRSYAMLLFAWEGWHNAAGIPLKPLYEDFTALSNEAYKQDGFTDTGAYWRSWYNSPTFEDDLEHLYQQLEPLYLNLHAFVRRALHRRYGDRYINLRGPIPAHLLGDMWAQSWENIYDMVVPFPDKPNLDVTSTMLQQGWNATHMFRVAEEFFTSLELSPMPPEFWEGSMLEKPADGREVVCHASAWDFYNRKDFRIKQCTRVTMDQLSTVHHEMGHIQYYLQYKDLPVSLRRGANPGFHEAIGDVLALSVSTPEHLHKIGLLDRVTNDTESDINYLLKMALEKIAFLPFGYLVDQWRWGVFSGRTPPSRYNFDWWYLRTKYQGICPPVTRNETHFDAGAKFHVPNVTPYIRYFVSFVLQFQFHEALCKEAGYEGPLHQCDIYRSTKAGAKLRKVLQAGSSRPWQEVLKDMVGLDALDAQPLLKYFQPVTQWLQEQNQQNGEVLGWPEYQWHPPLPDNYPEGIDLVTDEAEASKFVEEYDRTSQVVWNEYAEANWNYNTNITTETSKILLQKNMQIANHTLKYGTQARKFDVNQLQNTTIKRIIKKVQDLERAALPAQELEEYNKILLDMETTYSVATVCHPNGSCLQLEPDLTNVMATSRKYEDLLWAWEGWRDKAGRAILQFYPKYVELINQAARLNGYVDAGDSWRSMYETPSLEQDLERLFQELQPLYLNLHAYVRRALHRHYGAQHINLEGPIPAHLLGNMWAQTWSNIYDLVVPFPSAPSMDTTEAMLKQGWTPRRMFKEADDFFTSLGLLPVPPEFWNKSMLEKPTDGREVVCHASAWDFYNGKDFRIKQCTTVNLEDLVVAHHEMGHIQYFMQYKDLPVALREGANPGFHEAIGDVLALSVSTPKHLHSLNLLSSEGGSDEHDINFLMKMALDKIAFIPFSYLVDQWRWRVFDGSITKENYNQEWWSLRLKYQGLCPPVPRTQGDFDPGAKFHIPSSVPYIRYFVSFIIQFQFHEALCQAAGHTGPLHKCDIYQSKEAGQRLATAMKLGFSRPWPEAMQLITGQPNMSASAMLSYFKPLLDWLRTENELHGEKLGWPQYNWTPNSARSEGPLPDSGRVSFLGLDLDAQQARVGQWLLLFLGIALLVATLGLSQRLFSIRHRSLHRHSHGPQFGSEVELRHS

[6] = AUC (0 to 24 hrs) in Wistar rat plasma at 30 mg/kg, po; type: ADME, organism-based; design: time < 24 hr, dose 30 mg/kg, route oral
Dipeptidyl peptidase 4 = Dipeptidyl peptidase 4 (Mus musculus, UniProt P28843); experiment: Inhibition of ob/ob mouse plasma DPP4
Sequence of Dipeptidyl peptidase 4 (P28843 whole entry): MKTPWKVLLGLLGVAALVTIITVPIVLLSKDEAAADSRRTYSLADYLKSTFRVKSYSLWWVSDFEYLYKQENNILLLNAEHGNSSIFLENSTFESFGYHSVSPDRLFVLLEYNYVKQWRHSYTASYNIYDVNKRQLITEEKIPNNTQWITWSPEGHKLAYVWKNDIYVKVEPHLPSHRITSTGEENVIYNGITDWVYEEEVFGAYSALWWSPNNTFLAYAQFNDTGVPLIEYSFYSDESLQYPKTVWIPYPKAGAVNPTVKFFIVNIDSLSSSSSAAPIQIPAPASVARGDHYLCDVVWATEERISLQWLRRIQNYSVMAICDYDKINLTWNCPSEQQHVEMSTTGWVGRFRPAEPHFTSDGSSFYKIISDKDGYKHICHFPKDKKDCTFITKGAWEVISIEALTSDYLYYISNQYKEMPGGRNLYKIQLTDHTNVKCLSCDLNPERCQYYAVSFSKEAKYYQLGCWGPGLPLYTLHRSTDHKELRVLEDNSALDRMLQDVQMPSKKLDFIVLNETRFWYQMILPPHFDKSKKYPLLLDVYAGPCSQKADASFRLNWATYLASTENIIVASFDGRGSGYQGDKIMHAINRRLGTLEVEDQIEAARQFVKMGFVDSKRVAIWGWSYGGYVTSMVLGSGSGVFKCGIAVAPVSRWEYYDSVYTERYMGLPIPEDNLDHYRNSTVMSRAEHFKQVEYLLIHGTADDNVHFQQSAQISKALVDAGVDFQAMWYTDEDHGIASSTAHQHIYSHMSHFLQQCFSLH

[7] = AUC (0 to infinity) in Wistar rat plasma at 30 mg/kg, po; type: ADME, organism-based; design: dose 30 mg/kg, time infinity, route oral
Liver [8] = experiment: Stability in human liver microsomes; type: ADME, microsome
Cytochrome P450 2C19 = Cytochrome P450 2C19 (Homo sapiens, UniProt P33261); experiment: Inhibition of CYP2C19 (unknown origin) up to 10 uM; type: ADME
Sequence of Cytochrome P450 2C19 (P33261 whole entry): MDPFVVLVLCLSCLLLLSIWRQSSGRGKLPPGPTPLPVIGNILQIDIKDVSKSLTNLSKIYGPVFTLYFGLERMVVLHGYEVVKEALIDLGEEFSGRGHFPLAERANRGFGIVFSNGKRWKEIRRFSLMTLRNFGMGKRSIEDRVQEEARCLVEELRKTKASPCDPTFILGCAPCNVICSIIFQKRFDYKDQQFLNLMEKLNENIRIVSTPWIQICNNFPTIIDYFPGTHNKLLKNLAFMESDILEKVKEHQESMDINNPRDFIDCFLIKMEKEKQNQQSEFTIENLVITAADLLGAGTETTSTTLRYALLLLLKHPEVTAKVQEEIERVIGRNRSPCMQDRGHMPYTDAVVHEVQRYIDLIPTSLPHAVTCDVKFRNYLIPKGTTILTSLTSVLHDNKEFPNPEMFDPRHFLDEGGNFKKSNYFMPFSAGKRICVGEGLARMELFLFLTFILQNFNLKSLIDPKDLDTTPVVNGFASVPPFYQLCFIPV

Sequence of Aminopeptidase N (P15144 whole entry): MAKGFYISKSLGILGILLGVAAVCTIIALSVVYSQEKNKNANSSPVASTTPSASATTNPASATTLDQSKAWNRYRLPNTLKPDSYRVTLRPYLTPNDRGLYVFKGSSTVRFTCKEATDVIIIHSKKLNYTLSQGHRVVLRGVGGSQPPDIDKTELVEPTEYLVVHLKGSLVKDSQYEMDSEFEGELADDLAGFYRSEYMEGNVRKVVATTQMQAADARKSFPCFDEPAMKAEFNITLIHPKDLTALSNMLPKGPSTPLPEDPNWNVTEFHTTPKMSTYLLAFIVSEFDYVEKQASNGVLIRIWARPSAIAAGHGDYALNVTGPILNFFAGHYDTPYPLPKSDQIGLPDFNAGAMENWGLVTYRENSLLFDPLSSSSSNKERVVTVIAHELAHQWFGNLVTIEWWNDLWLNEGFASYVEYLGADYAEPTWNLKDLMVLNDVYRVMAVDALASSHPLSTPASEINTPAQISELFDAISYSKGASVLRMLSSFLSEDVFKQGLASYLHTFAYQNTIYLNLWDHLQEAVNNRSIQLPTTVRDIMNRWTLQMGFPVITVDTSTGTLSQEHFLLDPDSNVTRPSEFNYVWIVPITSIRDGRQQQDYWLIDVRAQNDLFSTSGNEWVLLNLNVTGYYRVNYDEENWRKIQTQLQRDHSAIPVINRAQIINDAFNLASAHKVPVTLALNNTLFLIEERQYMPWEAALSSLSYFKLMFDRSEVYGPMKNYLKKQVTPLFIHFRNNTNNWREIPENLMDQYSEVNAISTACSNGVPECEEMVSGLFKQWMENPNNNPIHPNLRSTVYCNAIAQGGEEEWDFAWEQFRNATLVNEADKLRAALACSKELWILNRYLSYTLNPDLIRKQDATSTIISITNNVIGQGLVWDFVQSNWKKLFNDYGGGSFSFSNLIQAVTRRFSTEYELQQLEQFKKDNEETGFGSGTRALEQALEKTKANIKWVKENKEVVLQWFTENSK

| Stability (Liver [1]) | IC50 (Aminopeptidase N) | fraction unbound [2] | IC50 (Dipeptidyl peptidase 2) | Cmax [3] | inhibition (INH) (Cytochrome P450 1A2) | IC50 (Dipeptidyl peptidase 9) | Stability (Liver [4]) | IC50 (Prolyl endopeptidase) | inhibition (INH) (Cytochrome P450 2C9) | IC50 [5] | AUC(0-t) at 24 h [6] | IC50 (Dipeptidyl peptidase 4) | AUC(0-inf) [7] | Stability (Liver [8]) | inhibition (INH) (Cytochrome P450 2C19) | Structure (SMILES) |
| --- | --- | --- | --- | --- | --- | --- | --- | --- | --- | --- | --- | --- | --- | --- | --- | --- |
| Stable | > 100 µM | 0.636 | > 100 µM | 550 ng/mL | Not Active | > 100 µM | Stable | > 100 µM | Not Active | 0.0086 to 0.0089 µM | 2360 ng·h/mL | 0.488 µM | 2860 ng·h/mL | Stable | Not Active | CC[C@H](N[C@@H](CCc1ccccc1)C(=O)O)C(=O)N1C[C@@H](NC(=O)C[C@H](N)Cc2cc(F)c(F)cc2F)C[C@H]1C(=O)O |
| Stable | > 100 µM | 0.597 | > 100 µM | 2500 ng/mL | Not Active | > 100 µM | Stable | > 100 µM | Not Active | 0.051 µM | 21500 ng·h/mL | 2.47 µM | 23500 ng·h/mL | Stable | Not Active | CCC[C@H](N[C@@H](CCc1ccccc1)C(=O)O)C(=O)N1C[C@@H](NC(=O)C[C@H](N)Cc2cc(F)c(F)cc2F)C[C@H]1C(=O)O |
| Stable | > 100 µM | 0.707 | > 100 µM | 260 ng/mL | Not Active | 44 µM | Stable | – | Not Active | 0.158 µM | 610 ng·h/mL | 0.217 µM | 1170 ng·h/mL | Stable | Not Active | C[C@H](N[C@@H](CCc1ccccc1)C(=O)O)C(=O)N1C[C@@H](NC(=O)C[C@H](N)Cc2cc(F)c(F)cc2F)C[C@H]1C(=O)O |
| Stable | > 100 µM | 0.327 | > 100 µM | 1330 ng/mL | Not Active | > 100 µM | Stable | > 100 µM | Not Active | 0.279 µM | 13900 ng·h/mL | 7.17 µM | 16800 ng·h/mL | Stable | Not Active | CCCC[C@H](N[C@@H](CCc1ccccc1)C(=O)O)C(=O)N1C[C@@H](NC(=O)C[C@H](N)Cc2cc(F)c(F)cc2F)C[C@H]1C(=O)O |

From ChEMBL document CHEMBL4020733, “Approaches towards the development of chimeric DPP4/ACE inhibitors for treating metabolic syndrome” (Bioorg Med Chem Lett, 2017)
